Test results reported in ChEMBL document CHEMBL5385961, “In vitro and in vivo evaluation of novel chromeno[2,3-d]pyrimidinones as therapeutic agents for triple negative breast cancer” (RSC Med Chem, 2024).
The source made the active and inactive calls. No cut-off for these calls is given here.

Legend:
[1] = tested on: Hs-578T; assay: Cytotoxicity against human Hs-578T cells assessed as reduction in cell proliferation at 0.5 times IC50 measured after 24 hrs by BrdU incorporation assay relative to control; type: functional; design: scale not given: the % may be the effect or the level left
[2] = tested on: Hs-578T; assay: Cytotoxicity against human Hs-578T cells assessed as reduction in cell proliferation at 0.5 times IC50 measured after 48 hrs by BrdU incorporation assay relative to control; type: functional; design: scale not given: the % may be the effect or the level left
[3] = tested on: Hs-578T; assay: Cytotoxicity against human Hs-578T cells assessed as reduction in cell proliferation at IC50 measured after 48 hrs by BrdU incorporation assay relative to control; type: functional; design: scale not given: the % may be the effect or the level left
[4] = tested on: Hs-578T; assay: Induction of apoptosis in human Hs-578T cells assessed as increase in cleaved PARP level at IC50 measured after 48 hrs by Western blot analysis; type: functional, cell-based
[5] = tested on: Hs-578T; assay: Induction of apoptosis in human Hs-578T cells assessed as increase in caspase-8 protein expression at IC50 measured after 24 hrs by Western blot analysis; type: functional, cell-based
[6] = tested on: Hs-578T; assay: Induction of apoptosis in human Hs-578T cells assessed as increase in caspase-8 protein expression at IC50 measured after 48 hrs by Western blot analysis; type: functional, cell-based
[7] = tested on: Hs-578T; assay: Induction of apoptosis in human Hs-578T cells assessed as increase in caspase-9 protein expression at IC50 measured after 24 to 48 hrs by Western blot analysis; type: functional, cell-based; conditions: time 24-48 hrs
[8] = tested on: Hs-578T; assay: Induction of apoptosis in human Hs-578T cells assessed as increase in BID protein expression at IC50 measured after 24 to 48 hrs by Western blot analysis; type: functional, cell-based; conditions: time 24-48 hrs
[9] = tested on: Hs-578T; assay: Induction of apoptosis in human Hs-578T cells assessed as increase in BAD protein expression at IC50 measured after 24 to 48 hrs by Western blot analysis; type: functional, cell-based; conditions: time 24-48 hrs
[10] = tested on: Hs-578T; assay: Induction of apoptosis in human Hs-578T cells assessed as increase in early apoptotic cells at IC50 measured after 24 to 48 hrs by Annexin V-FITC/PI staining based flow cytometry analysis; type: functional, cell-based; conditions: time 24-48 hrs
[11] = tested on: Hs-578T; assay: Induction of apoptosis in human Hs-578T cells assessed as increase in early apoptotic cells at IC50 measured after 48 hrs by Annexin V-FITC/PI staining based flow cytometry analysis relative to control; type: functional
[12] = tested on: Hs-578T; assay: Induction of cell cycle arrest in human Hs-578T cells assessed as accumulation of cells at S phase at IC50 measured after 48 hrs by RNase/PI staining based flow cytometry analysis; type: functional
[13] = tested on: Hs-578T; assay: Induction of cell cycle arrest in human Hs-578T cells assessed as increase in G2/M phase cell population at IC50 measured after 24 hrs by RNase/PI staining based flow cytometry analysis; type: functional
[14] = tested on: Hs-578T; assay: Induction of cell cycle arrest in human Hs-578T cells assessed as reduction in G0/G1 cell population at IC50 measured after 24 hrs by RNase/PI staining based flow cytometry analysis; type: functional
[15] = tested on: Hs-578T; assay: Antitumor activity against human Hs-578T cells implanted in chick eggs assessed as tumor growth regression at 2 times IC50 administered starting from day 13 and measured 17 days post embryo development by stereomicroscopic analysis; type: functional, cell-based; conditions: time 5.0 day
[16] = tested on: Hs-578T; assay: Antitumor activity against human Hs-578T cells implanted in chick eggs assessed as regression in tumors' perimeter at 2 times IC50 administered starting from day 13 and measured 17 days post embryo development by stereomicroscopic analysis relative to control; type: functional; conditions: time 5 day
[17] = Toxicity in wild type C57BL/6J mouse assessed as effect on body temperature at 10 to 50 mg/kg, ip administered daily for 7 days; type: organism-based; conditions: in vivo, 168 h, dose 10-50 mg/kg, time 7 day
[18] = Toxicity in wild type C57BL/6J mouse assessed as mean food intake at 10 mg/kg, ip administered daily for 7 days; type: organism-based; conditions: in vivo, 168 h, time 7 day
[19] = Toxicity in wild type C57BL/6J mouse assessed as mean food intake at 50 mg/kg, ip administered daily for 7 days; type: organism-based; conditions: in vivo, 168 h, time 7 day
[20] = Toxicity in wild type C57BL/6J mouse assessed as effect on horizontal activity at 10 to 50 mg/kg, ip administered daily for 7 days and measured daily; type: organism-based; conditions: in vivo, 168 h, dose 10-50 mg/kg, time 7 day
[21] = Toxicity in wild type C57BL/6J mouse assessed as effect on vertical activity at 10 to 50 mg/kg, ip administered daily for 7 days and measured daily; type: organism-based; conditions: in vivo, 168 h, dose 10-50 mg/kg, time 7 day
[22] = Toxicity in wild type C57BL/6J mouse assessed as effect on spontaneous activity at 10 to 50 mg/kg, ip administered daily for 7 days and measured daily; type: organism-based; conditions: in vivo, 168 h, dose 10-50 mg/kg, time 7 day
[23] = Toxicity in wild type C57BL/6J mouse assessed as effect on body position at 10 to 50 mg/kg, ip administered daily for 7 days and measured daily; type: organism-based; conditions: in vivo, 168 h, dose 10-50 mg/kg, time 7 day
[24] = Toxicity in wild type C57BL/6J mouse assessed as tremor at 10 to 50 mg/kg, ip administered daily for 7 days and measured daily; type: organism-based; conditions: in vivo, 168 h, dose 10-50 mg/kg, time 7 day
[25] = Toxicity in wild type C57BL/6J mouse assessed as effect on eyelid opening at 10 to 50 mg/kg, ip administered daily for 7 days and measured daily; type: organism-based; conditions: in vivo, 168 h, dose 10-50 mg/kg, time 7 day
[26] = Toxicity in wild type C57BL/6J mouse assessed as effect on eyelid reflexes at 10 to 50 mg/kg, ip administered daily for 7 days and measured daily; type: organism-based; conditions: in vivo, 168 h, dose 10-50 mg/kg, time 7 day
[27] = Toxicity in wild type C57BL/6J mouse assessed as effect on hydration at 10 to 50 mg/kg, ip administered daily for 7 days and measured daily; type: organism-based; conditions: in vivo, 168 h, dose 10-50 mg/kg, time 7 day
[28] = Toxicity in wild type C57BL/6J mouse assessed as piloerection at 10 to 50 mg/kg, ip administered daily for 7 days and measured daily; type: organism-based; conditions: in vivo, 168 h, dose 10-50 mg/kg, time 7 day
[29] = Toxicity in wild type C57BL/6J mouse assessed as effect on fur quality at 10 to 50 mg/kg, ip administered daily for 7 days and measured daily; type: organism-based; conditions: in vivo, 168 h, dose 10-50 mg/kg, time 7 day
[30] = Toxicity in wild type C57BL/6J mouse assessed as straub tail reaction at 10 to 50 mg/kg, ip administered daily for 7 days and measured daily; type: organism-based; conditions: in vivo, 168 h, dose 10-50 mg/kg, time 7 day
[31] = Toxicity in wild type C57BL/6J mouse assessed as clasping at 10 to 50 mg/kg, ip administered daily for 7 days and measured daily; type: organism-based; conditions: in vivo, 168 h, dose 10-50 mg/kg, time 7 day
[32] = tested on: Hs-578T; assay: Cytotoxicity against human Hs-578T cells assessed as cell viability at 10 uM incubated for 72 hrs by SRB assay relative to control; type: functional; conditions: read-out: Activity
[33] = tested on: Hs-578T; assay: Cytotoxicity against human Hs-578T cells assessed as cell viability at 30 uM incubated for 72 hrs by SRB assay relative to control; type: functional; conditions: read-out: Activity
[34] = tested on: MDA-MB-231; assay: Cytotoxicity against human MDA-MB-231 cells assessed as cell viability at 10 uM incubated for 72 hrs by SRB assay relative to control; type: functional; conditions: read-out: Activity
[35] = tested on: MDA-MB-231; assay: Cytotoxicity against human MDA-MB-231 cells assessed as cell viability at 30 uM incubated for 72 hrs by SRB assay relative to control; type: functional; conditions: read-out: Activity
[36] = tested on: MCF7; assay: Cytotoxicity against human MCF7 cells assessed as cell viability at 10 uM incubated for 72 hrs by SRB assay relative to control; type: functional; conditions: read-out: Activity
[37] = tested on: MCF7; assay: Cytotoxicity against human MCF7 cells assessed as cell viability at 30 uM incubated for 72 hrs by SRB assay relative to control; type: functional; conditions: read-out: Activity
[38] = tested on: Hs-578T; assay: Cytotoxicity against human Hs-578T cells assessed as reduction in cell viability at 10 uM incubated for 72 hrs by SRB assay relative to control; type: functional

`Brc1ccc2c(c1)-c1cc(-c3ccccc3)nc3c1C(N=CN3c1ccccc1)O2` (stereo not drawn) gave an Activity [1] of about 8%, an Activity [2] of 10% and an Activity [3] of 35%. The Activity [4] was “Active”, the Activity [5] was “Active” and the Activity [6] was “inactive”. The Activity [7] was “Active”, the Activity [8] was “Active” and the Activity [9] was “Active”. For the same molecule, the Activity [10] was “Active”, the Activity [11] was about 50% and the Activity [12] was “Active”. The Activity [13] was “Active”, the Activity [14] was “Active” and the Activity [15] was “Active”. The Activity [16] was 12.4%, the Activity [17] was “Non-Toxic” and the Activity [18] was ~ 3 g/day. For the same molecule, the Activity [19] was 2.94 g/day, the Activity [20] was “Non-Toxic” and the Activity [21] was “Non-Toxic”. For the same molecule, the Activity [22] was “Non-Toxic”, the Activity [23] was “Non-Toxic” and the Activity [24] was “Non-Toxic”. The Activity [25] was “Non-Toxic”, the Activity [26] was “Non-Toxic” and the Activity [27] was “Non-Toxic”. For the same molecule, the Activity [28] was “Non-Toxic”, the Activity [29] was “Non-Toxic” and the Activity [30] was “Non-Toxic”. The Activity [31] was “Non-Toxic”, the viability at 10 µM [32] was 50.4% and the viability at 30 µM [33] was 32.6%. The viability at 10 µM [34] was 49.9%, the viability at 30 µM [35] was 40.5% and the viability at 10 µM [36] was 58%. It also gave a viability at 30 µM [37] of 25.9% and an Activity [38] of about 50%.
